Patent US6040300A, “Method of preventing colon cancer with vitamin D3 analogues” (Arch Development Corporation, priority 1995, dated 2000)
Entries after “also recorded” stand apart in the source; their conditions may differ.

Legend:
[1] = test system: AOM-induced colonic tumors; assay: AOM-induced colonic tumor formation with dietary RO24-5531; assay type: in vivo, Male albino Fisher-344 rats; settings: for inhibition of development of colonic tumors / colon cancer incidence: AOM model, dietary supplementation
Procedure: FIG. 2. Study Protocol: Rats (12 each, in groups 1,3 and 5; 20 each, in groups 2,4 and 6) were fed either standard diet without RO24-5531 (open bars), or RO24-5531 supplemented diets (shaded bars) for the initial five weeks of the study. During this period rats were given two weekly subcutaneous injections of either AOM (15 mg/kg body wt/wk) (groups 2,4 or 6), or AOM-vehicle (saline) (groups 1,3, or 5) at the end of weeks 2 and 3 (arrows). At the end of five weeks, rats in groups 1-2 were continued on the standard diet without RO24-5531; groups 3-4 were switched to standard diet without RO24-5531; and groups 5-6 were switched to the RO24-5531 supplemented diet for another 29 weeks.
RO24-5531 was provided by Hoffmann LaRoche Inc. (Nutley, NJ; EP 580968). All diets were obtained from ICN Biochemicals (Cleveland, Ohio). Prior to pelleting, RO24-5531 or vehicle (0.1% ethanol) were mixed with the standard vitamin D-sufficient diet by ICN Biochemicals. This diet has been described in detail (Sitrin et al., 1991) and contained a normal content of calcium and phosphorus, 0.87% and 0.60%, respectively, with 2.2 IU of vitamin D3 /g of feed.
(§1) Male albino Fisher-344 rats, initially weighing ~90-100 g, were used in these studies. On arrival, the animals were quarantined for 1 wk and then randomly divided into the following six test groups: groups 1 and 2, standard vitamin D-sufficient diet; groups 3 and 4, standard diet supplemented with RO24-5531 (2.50 nmol/kg of feed); and groups 5 and 6, standard vitamin D-sufficient diet. […] Next, the rats in groups 2,4 and 6 were given subcutaneous injections of azoxymethane (AOM, Sigma Chemical Co., St. Louis, Mo.), 15 mg/kg body wt once a wk for 2 wks, while the rats in groups 1,3 and 5 received AOM-vehicle (saline).
(§2) Groups 1 and 2 were then maintained on the standard diet for an additional […]. Groups 3 and 4 were maintained on the RO24-5531 supplemented diets for the initial five wks and then switched to the standard diet without RO24-5531 for an additional 29 wks (initiation arm), whereas groups 5 and 6 were maintained on the standard diet without supplemental RO24-5531 for the initial five wks and then switched to the RO24-5531 supplemented diet for an additional 29 wks (post-initiation arm).
(§3) All rats were sacrificed in the non-fasting state after 34 wks on these protocols between 9 a.m. and 11 a.m. and sera obtained for measurement of calcium, phosphate, 25(OH)D3 and 1α,25(OH)2 D3 levels. The rats' colons were removed, opened, washed with normal saline and examined macroscopically for the presence of tumors. Resected tumors were weighed, and were fixed in 10% buffered formalin for microscopic examination. After formalin fixation, tissue specimens were paraffin-embedded, sectioned, and stained with hematoxylin and eosin as described previously (Sitrin et al., 1991), for light microscopic examination. All specimens were evaluated by a pathologist who was unaware of the dietary or AOM treatment history. Macroscopic and microscopic lesions were classified as either benign (adenoma) or malignant (adenocarcinoma).
(§4) Results are expressed as means ±SE of n determinations. Data were analyzed by Fisher's exact test (two-tailed) or analysis of variance (ANOVA) as appropriate (Snedecor and Cochran, Statistical Methods, 1980). Values of p <0.05 were considered statistically significant.

[2] = Body weight / growth and tolerability of the animals; assay type: in vivo; settings: for Final Wt.: mean ± S.E.M.
Description: as §1, §2, §3, §4

[3] = Serum calcium (standard colorimetric method); assay type: in vivo, Male albino Fisher-344 rats; settings: for hypercalcemia or alterations in serum levels: dietary supplementation, serum phosphorus, 25(OH)D3, 1,25(OH)2D3 also named; for Serum Levels Cas+: mean ± S.E.M.
Description: as §1, §2, §3
(§5) Serum calcium and phosphorus were measured by standard colorimetric methods (Kessler and Wolfman, Clin. Chem. 10:686-703, 1964). Serum 25(OH)D3 levels were measured by radioimmunoassay, using a kit and procedure supplied by Incstar (Stillwater, Minn.). Serum 1α,25(OH)2 D3 levels were assayed by a non-equilibrium competitive protein-binding assay based on a calf thymus receptor, using a kit and procedure supplied by Incstar, as previously described (Sitrin et al., 1991).
as §4

[4] = Serum phosphorus (standard colorimetric method); assay type: in vivo, Male albino Fisher-344 rats; settings: for Serum Levels P: mean ± S.E.M.
Description: as §1, §2, §3, §5, §4

[5] = Serum 1α,25(OH)2 D3 levels (competitive protein-binding assay, calf thymus receptor); assay type: in vivo, Male albino Fisher-344 rats; settings: all test groups
Description: as §1, with “(saline). […]” for “(saline).”
All rats were sacrificed in the non-fasting state after 34 wks on these protocols between 9 a.m. and 11 a.m. and sera obtained for measurement of calcium, phosphate, 25(OH)D3 and 1α,25(OH)2 D3 levels. […] All specimens were evaluated by a pathologist who was unaware of the dietary or AOM treatment history. […]
Serum calcium and phosphorus were measured by standard colorimetric methods (Kessler and Wolfman, Clin. Chem. 10:686-703, 1964). Serum 25(OH)D3 levels were measured by radioimmunoassay, using a kit and procedure supplied by Incstar (Stillwater, Minn.). […]
Results are expressed as means ±SE of n determinations. Data were analyzed by Fisher's exact test (two-tailed) or analysis of variance (ANOVA) as appropriate (Snedecor and Cochran, Statistical Methods, 1980). […]

HL-60 cells = settings: cited from earlier work
c-myc mRNA = settings: HL-60 cells; cited from earlier work
[6] = test system: NMU-induced breast cancers; settings: cited from earlier work
[7] = breast tumor study; cited from earlier work
[8] = listed as 1α,25-dihydroxy-16-ene-23-yne-26,27-hexafluorocholecalciferol
[9] = group 3: RO24-5531/SD, no AOM, 12 animals
[10] = group 4: RO24-5531/SD (initiation arm), AOM
[11] = group 4: RO24-5531/SD (initiation arm), AOM, 20 animals
[12] = group 4: RO24-5531/SD (initiation arm), AOM, 20 animals, p < 0.05 vs group 2
[13] = group 5: SD/RO24-5531, no AOM, 12 animals
[14] = group 6: SD/RO24-5531 (post-initiation arm), AOM
[15] = group 6: SD/RO24-5531 (post-initiation arm), AOM, 20 animals
[16] = group 3: RO24-5531/SD, no AOM, n=10

C=C1/C(=C\C=C2/CCC[C@]3(C)C([C@H](C)CC#CC(O)(C(F)(F)F)C(F)(F)F)=CC[C@@H]23)C[C@@H](O)C[C@@H]1O [RO24-5531, 26,26,26,27,27,27-hexafluoro-1α,25-dihydroxy-16-ene-23-yne-cholecalciferol]
inhibition of development of colonic tumors / colon cancer incidence ([1]; listed as 1α, 25-Dihydroxy-16-ene-23-yne-26, 27-hexafluorocholecalciferol): reduced the incidence of colon cancer in rats | inhibition of development of colonic tumors / colon cancer incidence [1, 8]: can inhibit the development of colonic tumors in mammals; also recorded: can inhibit the development of colonic tumors in the AOM model | development of tumors ([1]; AOM-vehicle, RO24-5531 supplemented diets (groups 3, 5)): None of the control animals given injections of the AOM-vehicle and fed either the standard or RO24-5531 supplemented diets developed tumors | Tumors/Tumor Bearing rat ([1]; group 3: RO24-5531/SD, no AOM): 0 | No. of Tumor-Bearing Rats [1, 9]: 0 | No. of Tumors, Benign No. [1, 9]: 0 | No. of Tumors, Malignant No. [1, 9]: 0 | No. of Tumors, Total No. [1, 9]: 0 | incidence of colonic tumors vs group 2 ([1]; group 4, initiation arm): significant decreases in the incidence of colonic tumors | tumor type ([1]; group 4, initiation arm): all of the colonic tumors in group 4 (initiation arm) were found to be benign, i.e., adenomas | Tumor Wt. [1, 10]: 102 ± 28 mg | Tumors/Tumor Bearing rat [1, 10]: 1.0 | No. of Tumors, Benign No. [1, 11]: 3 | No. of Tumors, Malignant No. [1, 11]: 0 | No. of Tumor-Bearing Rats [1, 12]: 3 | No. of Tumors, Total No. [1, 12]: 3 | Tumor-Bearing Rats (% of Incidence) ([1]; group 4: RO24-5531/SD (initiation arm), AOM, p < 0.05 vs group 2 (50%)): 15% | Tumors/Tumor Bearing rat ([1]; group 5: SD/RO24-5531, no AOM): 0 | No. of Tumor-Bearing Rats [1, 13]: 0 | No. of Tumors, Benign No. [1, 13]: 0 | No. of Tumors, Malignant No. [1, 13]: 0 | No. of Tumors, Total No. [1, 13]: 0 | tumor type ([1]; group 6, post-initiation arm): all of the colonic tumors were found to be adenomas | number of tumors vs AOM alone animals ([1]; group 6, post-initiation arm, p >0.05): a trend for a decrease in the number of tumors; also recorded: did not reach statistical significance | Tumor Wt. [1, 14]: 109 mg | Tumors/Tumor Bearing rat [1, 14]: 1.0 | No. of Tumor-Bearing Rats [1, 15]: 6 | No. of Tumors, Benign No. [1, 15]: 6 | No. of Tumors, Malignant No. [1, 15]: 0 | No. of Tumors, Total No. [1, 15]: 6 | Tumor-Bearing Rats (% of Incidence) ([1]; group 6: SD/RO24-5531 (post-initiation arm), AOM, group 2: 50%): 30% | AOM-induced adenocarcinomas ([1]; post-initiation arm, like its initiation arm counterpart): complete absence of AOM-induced adenocarcinomas | influence on growth of the animals ([2]; RO24-5531 supplemental dietary regimens, all groups): neither the RO24-5531 supplemental dietary regimens, nor the administration of carcinogen influenced the growth of the animals | tolerability ([2]; dietary supplementation): well-tolerated by the animals | Final Wt. ([2]; group 3: RO24-5531 2.50 nmol/kg of feed for initial five wks, then SD, no AOM): 470 ± 20 g | Final Wt. ([2]; group 4: RO24-5531/SD (initiation arm), AOM treated): 465 ± 16 g | Final Wt. ([2]; group 5: SD/RO24-5531 (supplement for last 29 wks), no AOM): 511 ± 30 g | Final Wt. ([2]; group 6: SD/RO24-5531 (post-initiation arm), AOM treated): 499 ± 28 g | hypercalcemia or alterations in serum levels [3]: did not result in hypercalcemia | hypercalcemia or alterations in serum levels [3, 8]: does not induce hypercalcemia or alterations in the serum levels of phosphorus, 25(OH)D3, or 1,25(OH)2D3; also recorded: did not induce hypercalcemia or alterations in the serum levels of phosphorus, 25(OH)D3 or 1,25(OH)2D3 | Serum Levels Cas+ [3, 16]: 11.3 ± 0.1 mg/dL | Serum Levels Cas+ ([3]; group 4: RO24-5531/SD (initiation arm), AOM, n=6): 10.1 ± 0.4 mg/dL | Serum Levels Cas+ ([3]; group 5: SD/RO24-5531, no AOM, n=14): 10.3 ± 0.4 mg/dL | Serum Levels Cas+ ([3]; group 6: SD/RO24-5531 (post-initiation arm), AOM, n=8): 10.1 ± 0.5 mg/dL | effect on serum levels of calcium ([3]; groups 4 (initiation arm) and 6 (post-initiation arm)): significantly altered the serum levels of calcium, phosphorus or 25(OH)D3 | Serum Levels P [4, 16]: 10.2 ± 0.7 mg/dL | Serum Levels P ([4]; group 4: RO24-5531/SD (initiation arm), AOM, n=5): 9.9 ± 0.8 mg/dL | Serum Levels P ([4]; group 5: SD/RO24-5531, no AOM, n=6): 9.2 ± 0.3 mg/dL | Serum Levels P ([4]; group 6: SD/RO24-5531 (post-initiation arm), AOM, n=11): 9.0 ± 0.8 mg/dL | effect on serum levels of phosphorus ([4]; groups 4 and 6): significantly altered the serum levels of calcium, phosphorus or 25(OH)D3 | effect on serum 1α,25(OH)2 D3 levels [5]: no differences were observed | induction of differentiation (HL-60 cells): induction of differentiation | inhibition of proliferation (HL-60 cells): inhibit proliferation of HL-60 cells; also recorded: inhibition of proliferation | c-myc mRNA expression (c-myc mRNA): decrease c-myc mRNA expression in HL-60 cells | protection against NMU-induced breast cancers ([6]; fed after administration of carcinogen): protected against the development of NMU-induced breast cancers | breast tumor incidence ([6]; in vivo): lessened tumor incidence | breast tumor latency ([6]; in vivo): extended breast tumor latency | breast tumor number ([6]; in vivo): lessened tumor incidence as well as tumor number | serum Ca2+ levels [7]: without causing elevated levels of serum Ca^2+
